The record followed here is patent publication US9307757B2, “Monoalkyl sulfosuccinates in pesticide formulations and applications” (AKZO NOBEL CHEMICALS INTERNATIONAL B.V., priority 2009, dated 2016).

A short description of series [1]: Stability and uniformity of high-load glufosinate-ammonium formulation (FIG. 1). The note with it: 1:1 mixture glufosinate-ammonium active and ACAR 7053 (C8 ether sulfate adjuvant), hydrotrope present, FIG. 1C. In kind it is physicochemical. An excerpt:
The unique structure of the monoalkyl sulfosuccinates of structure (I) renders them the capability of compatibilizing or stabilizing the highly concentrated components in the pesticide/herbicide formulation. Such capability is best illustrated by the performance of monoalkylsulfosuccinates, particularly of sodium monobutyl sulfosuccinate in the high load glufosinate-ammonium formulations. In these formulations, the active loading is at the highest (280 g/l). As the active content increases, the adjuvant content increases and the water content is reduced. Consequently, there is not enough water to solubilize both the herbicide active and the adjuvant. Without the action of a hydrotrope, the two components would separate.
Without hydrotrope, the formulation is a hazy mixture when freshly mixed (FIG. 1A) that separates into two layers upon standing (FIG. 1B).

The nature of series [2]: Designed experiment: percentage of separation of aqueous mixtures of pesticide, adjuvant and hydrotrope (FIG. 2 ternary diagram). Format: physicochemical. The note with it: pesticide formulation containing AGAR 7053 as adjuvant. The text has this:
The performance of the sodium monobutyl sulfosuccinate as hydrotrope for pesticide formulation containing the AGAR 7053 as adjuvant was also confirmed by the results of a designed experiment.
The numbers associated with the small colored bar in the upper left hand corner of the Figure give the percentage of separation in the samples. The colors in the bar are related to the colored regions in the ternary diagram. As the regions in the graph go from red to blue the percentage of separation goes to zero.

In the case of `CCCCOC(=O)C(CC(=O)[O-])S(=O)(=O)O.[Na+]` (stereo not drawn) [sodium monobutyl sulfosuccinate], in series [1], the “appearance of formulation when freshly mixed” value is recorded as “clear”; the “stability of formulation after prolonged standing” value was “retains that clarity and uniformity”. Further, in series [2], the “performance as hydrotrope (separation of samples)” value is reported as “performed as a hydrotrope over a wide range of concentrations”.
